Experiments:
HSV-1 strain WT-51 = experiment: Cutaneous HSV-1 infection mouse model; format: in vivo, HR-1 hairless mouse; settings: oral, 10 mg/kg twice a day for 5 days, scores for 17 days
Description: Using a cutaneous HSV-1 infection mouse model prepared in reference to the method of H. Machida et al. (Antiviral Res., 1992, 17, 133-143), the in vivo […] of the compounds of the present invention was tested using an animal model. The skin of each HR-1 hairless mouse [female, 7 weeks of age] was scratched lengthwise and breadthwise several times using a needle and a virus suspension (HSV-1 strain WT-51, 1.5×10^4 PFU/15 μl) was dropped to the scarified region for infection, while anesthetized with diethyl ether.
Tested compounds were administered orally as a methyl cellulose suspension, except for compounds marked with asterisk which were dissolved in 20% Cremophor EL (Nacalai Tesque)/20% polyethylene glycol (PEG) 400/60% H2O solution, starting at 3 hours after the infection, and then at a dose of 10 mg/kg twice a day for 5 days. The symptom of the skin lesion caused by HSV-1 infection were classified in the following scores for 17 days:
Score 0: no signs of infection.
Score 1: localized, barely perceptible small vesicles.
Score 2: slight vesicle spread.
Score 3: large patches of vesicles formed.
Score 4: zosteriform vesicles.
Score 5: large patches of ulcers formed.
Score 6: zosteriform with severe large ulcers.
Score 7: hind limb paralysis or death.
The AUC value was calculated from each group's mean disease score, and the disease inhibitory rate of the group administered with each test compound to the placebo group was calculated using the AUC.

ACV-resistant HSV-1 = ACV-resistant HSV-1 infection lethal model in nude mice; format: in vivo, nude mouse (CD-1(ICR)-nu/nu); settings: 100 mg/kg oral twice a day for 15 days
Description: ACV-resistant HSV-1 (3×10^6 pfu) was inoculated into the peritoneal cavity of each nude mouse (CD-1(ICR)-nu/nu, […], female, Charles River Japan) to cause infection with the virus. Each compound to be tested was made into a methyl cellulose suspension and orally administered at a dose of 100 mg/kg, twice a day for 15 days starting 1 hour after the infection (from 0 to 14 days after the infection).
During 17 days after the infection, death of the mice caused by ACV-resistant HSV-1 infection was observed every day, and the number of survived animals was counted.

[1] = dissolved in 20% Cremophor EL/20% PEG 400/60% H2O (asterisk)

How did the “Inhibition ratio (%) (disease inhibitory rate vs placebo from AUC of mean disease score)” value (“Inhibition ratio (%)” for short) (HSV-1 strain WT-51; methyl cellulose suspension) turn out when `Cc1cc(N(CC(=O)Nc2ccc(-c3ncon3)cc2)C(=O)C2CCS(=O)(=O)CC2)ccc1Cl` [Preparation 37, N-(4-chloro-3-methylphenyl)-N-(2-{[4-(1,2,4-oxadiazol-3-yl)phenyl]amino}-2-oxoethyl)tetrahydro-2H-thiopyran-4-carboxamide 1,1-dioxide] was run?
Its value is 100%.

How did the “Inhibition ratio (%)” value (HSV-1 strain WT-51; methyl cellulose suspension) turn out when `Cc1ccc(N(CC(=O)Nc2ccc(-c3cocn3)cc2)C(=O)C2CCS(=O)(=O)CC2)c(F)c1` [Preparation 20, N-(2-fluoro-4-methylphenyl)-N-(2-{[4-(1,3-oxazol-4-yl)phenyl]amino}-2-oxoethyl)tetrahydro-2H-thiopyran-4-carboxamide 1,1-dioxide] was run?
The value was 91%.

Which “Inhibition ratio (%)” value (HSV-1 strain WT-51; methyl cellulose suspension) does the source give for `Cc1cc(N(CC(=O)Nc2ccc(-c3cocn3)cc2)C(=O)C2CCS(=O)(=O)CC2)ccc1Cl` [Preparation 13, N-(4-chloro-3-methylphenyl)-N-(2-{[4-(1,3-oxazol-4-yl)phenyl]amino}-2-oxoethyl)tetrahydro-2H-thiopyran-4-carboxamide 1,1-dioxide] here?
Its value is 89%.

`Cc1ccc(N(CC(=O)Nc2ccc(-c3cocn3)cc2)C(=O)C2CCS(=O)(=O)CC2)c(C)c1` [Preparation 6, N-(2,4-dimethylphenyl)-N-(2-{[4-(1,3-oxazol-4-yl)phenyl]amino}-2-oxoethyl)tetrahydro-2H-thiopyran-4-carboxamide 1,1-dioxide] was tested. Which “Inhibition ratio (%)” value (HSV-1 strain WT-51; methyl cellulose suspension) did it give?
Its value is 92%.

Which “death suppressing effect (in words)” value (ACV-resistant HSV-1; 17 days after infection) does the source give for `CC(C)[C@H](N)C(=O)OCCOCn1cnc2c(=O)nc(N)[nH]c21` [VCV, valcyclovir, reference compound] here?
The value was “clear death suppressing effect was not found”.

What about the “The number of survived animals (n = 10)” value (ACV-resistant HSV-1; day 0 after infection) of the same compound?
Its value is 10.

And the “The number of survived animals (n = 10)” value (ACV-resistant HSV-1; day 1 after infection)?
The value was 10.

And the “The number of survived animals (n = 10)” value (ACV-resistant HSV-1; day 2 after infection)?
The value was 10.

What about the “The number of survived animals (n = 10)” value (ACV-resistant HSV-1; day 4 after infection) of the same compound?
The value was 10.

What about the “The number of survived animals (n = 10)” value (ACV-resistant HSV-1; day 5 after infection) of the same compound?
Its value is 10.

What about the “The number of survived animals (n = 10)” value (ACV-resistant HSV-1; day 6 after infection) of the same compound?
Its value is 10.

And the “The number of survived animals (n = 10)” value (ACV-resistant HSV-1; day 7 after infection)?
The value was 9.

What about the “The number of survived animals (n = 10)” value (ACV-resistant HSV-1; day 8 after infection) of the same compound?
The value was 8.

What about the “The number of survived animals (n = 10)” value (ACV-resistant HSV-1; day 9 after infection) of the same compound?
Its value is 4.

And the “The number of survived animals (n = 10)” value (ACV-resistant HSV-1; day 10 after infection)?
The value was 2.

What about the “The number of survived animals (n = 10)” value (ACV-resistant HSV-1; day 11 after infection) of the same compound?
Its value is 2.

And the “The number of survived animals (n = 10)” value (ACV-resistant HSV-1; day 12 after infection)?
The value was 2.

What about the “The number of survived animals (n = 10)” value (ACV-resistant HSV-1; day 14 after infection) of the same compound?
Its value is 2.

What about the “The number of survived animals (n = 10)” value (ACV-resistant HSV-1; day 16 after infection) of the same compound?
Its value is 2.

What about the “The number of survived animals (n = 10)” value (ACV-resistant HSV-1; day 17 after infection) of the same compound?
The value was 2.

How did the “Inhibition ratio (%)” value (HSV-1 strain WT-51; methyl cellulose suspension) turn out when `Nc1nc(-c2ccc(NC(=O)CN(C(=O)C3CCS(=O)(=O)CC3)c3ccc4c(c3)CCC4)cc2)cs1` [Comparative compound D, reference compound] was run?
Its value is 43%.

For `Cc1cccc(N(CC(=O)Nc2ccc(-c3cocn3)cc2)C(=O)C2CCS(=O)(=O)CC2)c1` [Preparation 3, N-(3-methylphenyl)-N-(2-{[4-(1,3-oxazol-4-yl)phenyl]amino}-2-oxoethyl)tetrahydro-2H-thiopyran-4-carboxamide 1,1-dioxide], which “Inhibition ratio (%)” value (HSV-1 strain WT-51; methyl cellulose suspension) is on record?
The value was 70%.

`Cc1ccc(N(CC(=O)Nc2ccc(-c3cocn3)cc2)C(=O)C2CCS(=O)(=O)CC2)c(C)c1F` [Preparation 17, N-(3-fluoro-2,4-dimethylphenyl)-N-(2-{[4-(1,3-oxazol-4-yl)phenyl]amino}-2-oxoethyl)tetrahydro-2H-thiopyran-4-carboxamide 1,1-dioxide] was tested. Which “Inhibition ratio (%)” value (HSV-1 strain WT-51; methyl cellulose suspension) did it give?
Its value is 94%.

Which “Inhibition ratio (%)” value (HSV-1 strain WT-51; methyl cellulose suspension) does the source give for `Cc1c(F)cc(N(CC(=O)Nc2ccc(-c3cocn3)cc2)C(=O)C2CCS(=O)(=O)CC2)cc1F` [Preparation 19, N-(3,5-difluoro-4-methylphenyl)-N-(2-{[4-(1,3-oxazol-4-yl)phenyl]amino}-2-oxoethyl)tetrahydro-2H-thiopyran-4-carboxamide 1,1-dioxide] here?
Its value is 71%.

Which “Inhibition ratio (%)” value (HSV-1 strain WT-51; methyl cellulose suspension) does the source give for `COc1ccc(N(CC(=O)Nc2ccc(-c3csc(N)n3)cc2)C(=O)C2CCS(=O)(=O)CC2)cc1` [Comparative compound B, reference compound] here?
The value was 2%.

`O=C(CN(C(=O)C1CCS(=O)(=O)CC1)c1ccc2c(c1)CCC2)Nc1ccc(-c2cocn2)cc1` [Preparation 11, N-(2,3-dihydro-1H-inden-5-yl)-N-(2-{[4-(1,3-oxazol-4-yl)phenyl]amino}-2-oxoethyl)tetrahydro-2H-thiopyran-4-carboxamide 1,1-dioxide] was tested. Which “Inhibition ratio (%)” value (HSV-1 strain WT-51; methyl cellulose suspension) did it give?
The value was 92%.

For `Cc1ccc(N(CC(=O)Nc2ccc(-c3ncon3)cc2)C(=O)C2CCS(=O)(=O)CC2)cc1F` [Preparation 35, N-(3-fluoro-4-methylphenyl)-N-(2-{[4-(1,2,4-oxadiazol-3-yl)phenyl]amino}-2-oxoethyl)tetrahydro-2H-thiopyran-4-carboxamide 1,1-dioxide], which “Inhibition ratio (%)” value (HSV-1 strain WT-51; methyl cellulose suspension) is on record?
The value was 82%.

Which “Inhibition ratio (%)” value (HSV-1 strain WT-51; methyl cellulose suspension) does the source give for `Cc1ccc(N(CC(=O)Nc2ccc(-c3cocn3)cc2)C(=O)C2CCS(=O)(=O)CC2)cc1F` [Preparation 14, N-(3-fluoro-4-methylphenyl)-N-(2-{[4-(1,3-oxazol-4-yl)phenyl]amino}-2-oxoethyl)tetrahydro-2H-thiopyran-4-carboxamide 1,1-dioxide] here?
Its value is 98%.

How did the “Inhibition ratio (%)” value (HSV-1 strain WT-51; methyl cellulose suspension) turn out when `Cc1cccc(N(CC(=O)Nc2ccc(-c3ncon3)cc2)C(=O)C2CCS(=O)(=O)CC2)c1C` [Preparation 24, N-(2,3-dimethylphenyl)-N-(2-{[4-(1,2,4-oxadiazol-3-yl)phenyl]amino}-2-oxoethyl)tetrahydro-2H-thiopyran-4-carboxamide 1,1-dioxide] was run?
Its value is 89%.

For `Cc1ccccc1N(CC(=O)Nc1ccc(-c2cocn2)cc1)C(=O)C1CCS(=O)(=O)CC1` [Preparation 4, N-(2-methylphenyl)-N-(2-{[4-(1,3-oxazol-4-yl)phenyl]amino}-2-oxoethyl)tetrahydro-2H-thiopyran-4-carboxamide 1,1-dioxide], which “Inhibition ratio (%)” value (HSV-1 strain WT-51; methyl cellulose suspension) is on record?
The value was 77%.

For `Nc1nc(-c2ccc(NC(=O)CN(C(=O)c3ccc(F)cc3)c3ccc4ncsc4c3)cc2)cs1` [Comparative compound A, reference compound], which “Inhibition ratio (%)” value (HSV-1 strain WT-51; methyl cellulose suspension) is on record?
The value was 38%.

`Cc1ccc(N(CC(=O)Nc2ccc(-c3ncon3)cc2)C(=O)C2CCS(=O)(=O)CC2)c(C)c1F` [Preparation 39, N-(3-fluoro-2,4-dimethylphenyl)-N-(2-{[4-(1,2,4-oxadiazol-3-yl)phenyl]amino}-2-oxoethyl)tetrahydro-2H-thiopyran-4-carboxamide 1,1-dioxide] was tested. Which “Inhibition ratio (%)” value (HSV-1 strain WT-51; methyl cellulose suspension) did it give?
The value was 80%.

How did the “Inhibition ratio (%)” value (HSV-1 strain WT-51; [1]) turn out when `Cc1cc(F)cc(C)c1N(CC(=O)Nc1ccc(-c2ncon2)cc1)C(=O)C1CCS(=O)(=O)CC1` [Preparation 31, N-(4-fluoro-2,6-dimethylphenyl)-N-(2-{[4-(1,2,4-oxadiazol-3-yl)phenyl]amino}-2-oxoethyl)tetrahydro-2H-thiopyran-4-carboxamide 1,1-dioxide] was run?
Its value is “* 86%”.

With `Cc1ccc(N(CC(=O)Nc2ccc(-c3ncon3)cc2)C(=O)C2CCS(=O)(=O)CC2)c(C)c1` [Preparation 25, N-(2,4-dimethylphenyl)-N-(2-{[4-(1,2,4-oxadiazol-3-yl)phenyl]amino}-2-oxoethyl)tetrahydro-2H-thiopyran-4-carboxamide 1,1-dioxide] as the compound, how does the “Inhibition ratio (%)” value (HSV-1 strain WT-51; [1]) read?
The value was “* 70%”.

For `O=C(CN(C(=O)C1CCS(=O)(=O)CC1)c1ccc2c(c1)CCC2)Nc1ccc(-c2ncon2)cc1` [Preparation 33, N-(2,3-dihydro-1H-inden-5-yl)-N-(2-{[4-(1,2,4-oxadiazol-3-yl)phenyl]amino}-2-oxoethyl)tetrahydro-2H-thiopyran-4-carboxamide 1,1-dioxide], which “Inhibition ratio (%)” value (HSV-1 strain WT-51; methyl cellulose suspension) is on record?
The value was 79%.

Source: patent US20090048310A1, “AGENT FOR PREVENTION/TREATMENT OF DISEASE CAUSED BY ACYCLOVIR-RESISTANT HERPESVIRUS” (ASTELLAS PHARMA INC., priority 2005, published 2009)
